Test results: patent publication US20240294495A1, “COMPOUNDS THAT MEDIATE PROTEIN DEGRADATION AND METHODS OF USE THEREOF” (Monte Rosa Therapeutics, Inc., priority 2021, published 2024)

What was measured:
GSPT1 = target: T1, GSPT1 (Homo sapiens, UniProt P15170+Q96SW2); experiment: Immunofluorescence assay for GSPT1 degradation in CAL-51 cells; format: cell-based; conditions: 6 h treatment, read-out: IF Class (GSPT1 degradation, DC50)
T1 construct: CAL-51 cells were purchased from DSMZ (cat. Number ACC302); endogenous in cells; host or cells: CAL-51 (DSMZ ACC302)
T1 sequence (P15170 whole entry): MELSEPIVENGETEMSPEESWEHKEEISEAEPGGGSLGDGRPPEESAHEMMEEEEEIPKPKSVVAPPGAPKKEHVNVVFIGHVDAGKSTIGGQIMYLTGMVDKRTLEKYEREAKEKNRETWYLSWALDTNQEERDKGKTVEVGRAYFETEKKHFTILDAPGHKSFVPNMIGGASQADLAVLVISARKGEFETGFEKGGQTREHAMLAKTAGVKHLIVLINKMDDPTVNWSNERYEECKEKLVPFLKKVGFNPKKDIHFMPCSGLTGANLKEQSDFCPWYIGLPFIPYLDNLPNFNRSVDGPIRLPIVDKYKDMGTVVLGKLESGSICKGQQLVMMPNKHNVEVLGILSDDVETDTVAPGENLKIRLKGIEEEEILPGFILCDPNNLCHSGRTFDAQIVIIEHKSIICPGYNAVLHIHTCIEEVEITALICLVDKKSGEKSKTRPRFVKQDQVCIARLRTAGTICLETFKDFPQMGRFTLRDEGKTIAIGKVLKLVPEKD
T1 sequence (Q96SW2 whole entry): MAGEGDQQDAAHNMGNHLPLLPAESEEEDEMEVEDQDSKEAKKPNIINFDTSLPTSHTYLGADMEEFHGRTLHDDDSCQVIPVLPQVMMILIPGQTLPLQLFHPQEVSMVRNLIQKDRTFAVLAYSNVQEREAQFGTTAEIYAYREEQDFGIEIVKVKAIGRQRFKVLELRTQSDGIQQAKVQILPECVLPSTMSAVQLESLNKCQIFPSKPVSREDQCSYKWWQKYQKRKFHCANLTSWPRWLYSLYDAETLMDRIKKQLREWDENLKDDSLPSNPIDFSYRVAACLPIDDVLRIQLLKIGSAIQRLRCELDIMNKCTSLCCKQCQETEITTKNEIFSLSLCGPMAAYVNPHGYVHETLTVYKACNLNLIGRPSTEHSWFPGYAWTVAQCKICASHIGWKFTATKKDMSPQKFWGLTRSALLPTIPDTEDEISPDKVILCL
T1 sequence (Q16531 2-1140 partner limits assumed): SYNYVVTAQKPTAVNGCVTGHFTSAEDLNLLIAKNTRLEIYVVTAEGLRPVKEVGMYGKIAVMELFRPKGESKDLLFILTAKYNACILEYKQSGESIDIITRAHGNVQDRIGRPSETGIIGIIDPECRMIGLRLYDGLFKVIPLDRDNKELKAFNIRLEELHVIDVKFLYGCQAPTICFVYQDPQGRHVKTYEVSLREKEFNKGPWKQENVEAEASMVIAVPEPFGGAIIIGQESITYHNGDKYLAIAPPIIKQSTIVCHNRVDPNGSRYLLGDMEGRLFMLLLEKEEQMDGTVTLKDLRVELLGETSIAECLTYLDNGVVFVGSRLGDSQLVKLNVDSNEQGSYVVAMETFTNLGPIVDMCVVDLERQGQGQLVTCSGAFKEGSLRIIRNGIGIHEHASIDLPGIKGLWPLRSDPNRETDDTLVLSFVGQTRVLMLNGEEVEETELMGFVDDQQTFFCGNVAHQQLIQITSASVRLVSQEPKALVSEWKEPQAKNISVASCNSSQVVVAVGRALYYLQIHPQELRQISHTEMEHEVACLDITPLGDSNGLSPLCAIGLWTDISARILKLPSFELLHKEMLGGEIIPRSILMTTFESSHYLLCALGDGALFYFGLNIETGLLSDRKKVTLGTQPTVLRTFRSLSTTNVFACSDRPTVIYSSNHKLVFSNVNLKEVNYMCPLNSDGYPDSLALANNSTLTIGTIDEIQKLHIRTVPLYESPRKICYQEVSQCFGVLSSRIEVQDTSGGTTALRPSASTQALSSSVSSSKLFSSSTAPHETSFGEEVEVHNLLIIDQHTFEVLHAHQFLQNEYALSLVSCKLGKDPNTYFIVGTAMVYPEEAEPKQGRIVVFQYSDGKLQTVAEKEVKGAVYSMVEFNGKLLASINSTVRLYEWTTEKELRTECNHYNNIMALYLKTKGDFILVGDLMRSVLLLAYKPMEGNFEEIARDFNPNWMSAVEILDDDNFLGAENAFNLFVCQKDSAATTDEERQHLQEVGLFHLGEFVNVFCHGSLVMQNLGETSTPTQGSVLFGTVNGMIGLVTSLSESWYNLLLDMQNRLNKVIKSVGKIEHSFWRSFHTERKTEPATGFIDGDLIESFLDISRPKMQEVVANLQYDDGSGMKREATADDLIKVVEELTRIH
Method: The representative compounds were tested in an immunofluorescence assay for their activity to degrade GSPT1. CAL-51 cells were purchased from DSMZ (cat. Number ACC302), sub-cultured in 90% Dulbecco's MEM (4.5 g/L glucose, Gibco 11965)+10% heat inactivated FBS (BioConcept, 2-01F136I) and incubated at 37° C., 5% CO2. For the assay imaging microtiter plate Cell Carrier 96 Ultra (Perkin Elmer 6055302) were pre-coated with Fibronectin (Sigma F085, 30 μl at 0.2 μg/mL) in PBS (100 μL, Gibco 14190) for 45 min at room temperature, rinsed with PBS and CAL-51 cells (30K cells/well) were plated and let to adhere overnight. Cells were treated with compounds typically using a serial dilution ranging from 30 μM to 0.1 nM for 6 h. Compounds were stored at 10 mM DMSO stocks. Vehicle (DMSO), positive (CC-885, 10 μM) and rescue controls (positive control plus 0.2 μM bortezomib) were also included at this stage. Cells were subsequently rinsed with PBS and fixed in 10% Formalin solution (50 μl, Sigma HT5011)) for 20 min at room temperature. Following three consecutive PBS washes (100 μL), cells were permeabilized in 0.1% Triton X-100 in PBS (Sigma 93443, 50 μl) for 15 min at room temperature. Following three further PBS washes, 50 μl blocking buffer (1% BSA, Sigma A4503, in PBS) was added for 45 min for signal-to noise reduction. Primary antibody (human GSPT1, Sigma HPA052488) was diluted in blocking buffer (dil.1/300, 35 μL/well) and incubated with the cells overnight at 4° C. After three PBS washes, Alexa-fluor 488 coupled secondary antibodies (Invitrogen, A32731, dil.1/1000), Alexa-fluor 647-Phalloidin (Invitrogen, A22287, dil.1/200) and DAPI (Thermo, #62248, dil.1/1000) were diluted in blocking buffer and incubated with the samples for 2 h at room temperature. After three final PBS washes, samples were conserved in 100 μL PBS in the dark, until measurement. Image acquisition was performed on the Operetta High-Content Imager (Perkin-Elmer). Fluorescence intensity of […] (GSPT1), Alexa-Fluor 647 (Actin) and DAPI (Nucleus) were measured. For the determination of GSPT1 DC50 values, a custom algorithm implemented in the PerkinElmer image analysis software Harmony-Acapella® was developed. After user-defined setting of adjustment parameters, the analysis was run identically without human intervention for all image fields. DAPI staining of the nuclei was used to determine the location of cells using standard nuclei detection modules. Segmentation artifacts were removed by threshold-based filters for area, roundness and intensity. The outline of the cells was determined analogously from the sum of the normalized, smoothed DAPI and Actin channel, starting from each nucleus. The Alexa-Fluor 488 (GSPT1) signal intensity in each cell was finally measured, in order to obtain a Mean intensity per cell. GSPT1 degradation (DC50) was calculated after normalization to controls and data import in CDD vault Database, using non-linear regression.
(§1) In Table 2, each compound is assigned a class (HTRF class) indicating the ability for Cereblon binding by means of their HTRF IC50 values according to Example 3: A, B or C. According to the code, A represents an IC50 value of <100 nM, B represents an IC50 value>100 nM and <1000 nM, C represents an IC50 value>1000 nM. IF Class assigns each compound a code indicating the ability for GSPT1 degradation: A, B or C. According to the code, A represents a DC50 value of <30 nM, B represents a DC50 value>30 nM and <300 nM and C represents a DC50 value of >300 nM.

CRBN-DDB1 = CRBN-DDB1 (Homo sapiens, UniProt Q96SW2); experiment: Compound binding to CRBN by HTRF assay; conditions: CRBN-DDB1 2.5 nM, Cy5-Thalidomide 100 nM probe, 30 min incubation; read-out: HTRF Class (Cereblon binding, HTRF IC50)
Chain of CRBN-DDB1 (Q96SW2 whole entry): as the sequence (Q96SW2 whole entry) above
Chain of CRBN-DDB1 (Q16531 whole entry partner): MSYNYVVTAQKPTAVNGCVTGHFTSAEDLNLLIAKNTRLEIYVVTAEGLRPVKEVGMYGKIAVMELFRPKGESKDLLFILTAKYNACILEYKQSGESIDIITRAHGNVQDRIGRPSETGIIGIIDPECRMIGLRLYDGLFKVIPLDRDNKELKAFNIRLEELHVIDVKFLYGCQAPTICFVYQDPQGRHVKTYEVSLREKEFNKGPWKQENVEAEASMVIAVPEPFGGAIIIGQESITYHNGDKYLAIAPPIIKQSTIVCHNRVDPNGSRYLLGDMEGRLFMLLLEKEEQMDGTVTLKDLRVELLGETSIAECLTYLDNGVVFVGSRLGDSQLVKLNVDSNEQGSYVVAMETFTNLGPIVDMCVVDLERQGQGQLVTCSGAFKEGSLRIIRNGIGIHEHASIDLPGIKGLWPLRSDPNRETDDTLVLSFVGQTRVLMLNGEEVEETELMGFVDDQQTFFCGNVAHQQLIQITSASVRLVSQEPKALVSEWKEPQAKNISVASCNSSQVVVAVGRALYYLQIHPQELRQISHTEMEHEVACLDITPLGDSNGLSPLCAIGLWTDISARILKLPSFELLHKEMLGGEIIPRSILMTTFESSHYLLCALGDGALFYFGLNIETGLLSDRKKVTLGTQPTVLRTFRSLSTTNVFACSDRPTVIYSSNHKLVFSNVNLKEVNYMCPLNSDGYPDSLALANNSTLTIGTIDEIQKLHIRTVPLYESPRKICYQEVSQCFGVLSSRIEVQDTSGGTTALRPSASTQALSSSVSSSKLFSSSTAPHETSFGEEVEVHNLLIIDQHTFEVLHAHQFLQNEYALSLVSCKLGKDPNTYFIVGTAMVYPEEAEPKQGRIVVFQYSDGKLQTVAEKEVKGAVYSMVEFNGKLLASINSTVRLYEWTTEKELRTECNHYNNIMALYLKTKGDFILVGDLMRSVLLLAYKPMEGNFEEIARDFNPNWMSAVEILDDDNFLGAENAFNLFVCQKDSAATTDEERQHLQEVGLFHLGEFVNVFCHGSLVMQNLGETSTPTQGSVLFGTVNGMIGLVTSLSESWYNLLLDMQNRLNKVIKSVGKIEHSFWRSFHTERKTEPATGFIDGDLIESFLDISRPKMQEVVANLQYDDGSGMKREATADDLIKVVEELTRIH
Method: Compound activity was monitored in a Homogenous Time-Resolved Fluorescence (HTRF) assay using 1-[5-({2-[2-(2-{[2-(2,6-dioxopiperidin-3-yl)-1,3-dioxo-2,3-dihydro-1H-isoindol-4-yl]oxy}acetamido)ethoxy]ethyl}carbamoyl)pentyl]-3,3-dimethyl-2-[(1E,3E)-5-[(2E)-1,3,3-trimethyl-5-sulfo-2,3-dihydro-1H-indol-2-ylidene]penta-1,3-dien-1-yl]-3H-indol-1-ium-5-sulfonate as a fluorescent probe. Biochemical assays were conducted in Greiner white 384 well HiBase plates (Cat. No 784075-25) in 10 μL total volume. A one pot detection solution of CRBN-DDB1 (2.5 nM), Anti-His Terbium Cryptate Gold (1×, PerkinElmer Cat. #: 61HI2TLB), and Cy5-Thalidomide (100 nM, Tenova Cat.: T52461) was prepared in 20 mM HEPES, 20 mM NaCl, 0.2 mM TCEP, 0.2 mM EDTA, and 0.005% Tween20 was dispensed to each assay plate. Compounds were stored in dry, ambient temperatures at 10 mM. A 10-point, 1:3 dilution series was prepared from 10 mM stock concentrations in Echo-compatible LDV plates. 10 nL of each compound dilution series was dispensed into assays wells using an Echo 650 (Labcyte inc. USA). 10 nL of 10 mM Lenalidomide was transferred into the active-control wells for the assay and 10 nL of DMSO was transferred into the neutral-control wells. The assay was then allowed to incubate for 30 min at ambient temperature after transferring compound. Plate measurements were taken on a Pherastar FSX (BMG Labtech, Germany) using the HTRF Red filter (Ex. 337 nm, em1: 620 nm, em2: 665 nm) (Flashes: 50, Integration time: 60-400 us, Z-height: 10 mm, Ratio-multiplier: 10,000). The HTRF signal was then subsequently normalized to the neutral and active controls. Analysis and IC50 values were derived using KNIME analytics (KNIME Zurich) transformation and fitting within Collaborative Drug Discovery (Collaborative Drug Discovery USA). Ki was derived from the geometric mean of the IC50 values using the Cheng-Prustoff transformation.
as §1

SMILES	DC50 (GSPT1) [µM]	IC50 (CRBN-DDB1) [µM]
Cc1cc(CC(=O)NC2CN(c3cc(F)c(C4CCC(=O)NC4=O)c(F)c3)C2)ccc1F (stereo not drawn) [Compound 30, N-(1-(4-(2,6-dioxopiperidin-3-yl)-3,5-difluorophenyl)azetidin-3-yl)-2-(4-fluoro-3-methylphenyl)acetamide]	0.03 to 0.3	0.1 to 1
O=C1CCC(c2c(F)cc(N3CC(NC(=O)Cc4ncc(Cl)cc4F)C3)cc2F)C(=O)N1 (stereo not drawn) [Compound 15, 2-(5-chloro-3-fluoropyridin-2-yl)-N-(1-(4-(2,6-dioxopiperidin-3-yl)-3,5-difluorophenyl)azetidin-3-yl)acetamide]	> 0.3	0.1 to 1
COc1cc(Cl)ccc1CC(=O)NC1CN(c2cc(F)c(C3CCC(=O)NC3=O)c(F)c2)C1 (stereo not drawn) [Compound 27, 2-(4-chloro-2-methoxyphenyl)-N-(1-(4-(2,6-dioxopiperidin-3-yl)-3,5-difluorophenyl)azetidin-3-yl)acetamide]	0.03 to 0.3	0.1 to 1
O=C1CCC(c2c(F)cc(N3CC(CC(=O)Nc4cc(OC(F)(F)F)ccc4F)C3)cc2F)C(=O)N1 (stereo not drawn) [Compound 9, 2-(1-(4-(2,6-dioxopiperidin-3-yl)-3,5-difluorophenyl)azetidin-3-yl)-N-(2-fluoro-5-(trifluoromethoxy)phenyl)acetamide]	< 0.03	0.1 to 1
Cc1cc(F)cc(CC(=O)NC2CN(c3cc(F)c(C4CCC(=O)NC4=O)c(F)c3)C2)c1 (stereo not drawn) [Compound 7, N-(1-(4-(2,6-dioxopiperidin-3-yl)-3,5-difluorophenyl)azetidin-3-yl)-2-(3-fluoro-5-methylphenyl)acetamide]	> 0.3	0.1 to 1
O=C1CCC(c2c(F)cc(N3CC(NC(=O)Cc4ccc(Cl)cc4F)C3)cc2F)C(=O)N1 (stereo not drawn) [Compound 31, 2-(4-chloro-2-fluorophenyl)-N-(1-(4-(2,6-dioxopiperidin-3-yl)-3,5-difluorophenyl)azetidin-3-yl)acetamide]	0.03 to 0.3	0.1 to 1
O=C1CCC(c2c(F)cc(N3CC(NC(=O)Cc4ccc(Cl)cn4)C3)cc2F)C(=O)N1 (stereo not drawn) [Compound 10, 2-(5-chloropyridin-2-yl)-N-(1-(4-(2,6-dioxopiperidin-3-yl)-3,5-difluorophenyl)azetidin-3-yl)acetamide]	> 0.3	< 0.1
O=C1CCC(c2c(F)cc(N3CC(NC(=O)Cc4ccc(F)c(Cl)c4)C3)cc2F)C(=O)N1 (stereo not drawn) [Compound 13, 2-(3-chloro-4-fluorophenyl)-N-(1-(4-(2,6-dioxopiperidin-3-yl)-3,5-difluorophenyl)azetidin-3-yl)acetamide]	> 0.3	0.1 to 1
CC(C)(C)C12CC(C(=O)NC3CN(c4cc(F)c(C5CCC(=O)NC5=O)c(F)c4)C3)(C1)C2 (stereo not drawn) [Compound 23, 3-(tert-butyl)-N-(1-(4-(2,6-dioxopiperidin-3-yl)-3,5-difluorophenyl)azetidin-3-yl) bicyclo[1.1.1]pentane-1-carboxamide]	> 0.3	0.1 to 1
O=C1CCC(c2c(F)cc(N3CC(NC(=O)Cc4ccc(F)cc4F)C3)cc2F)C(=O)N1 (stereo not drawn) [Compound 11, 2-(2,4-difluorophenyl)-N-(1-(4-(2,6-dioxopiperidin-3-yl)-3,5-difluorophenyl)azetidin-3-yl)acetamide]	< 0.03	0.1 to 1
O=C1CCC(c2c(F)cc(N3CC(NC(=O)Cc4cccc(OC(F)(F)F)c4)C3)cc2F)C(=O)N1 (stereo not drawn) [Compound 28, N-(1-(4-(2,6-dioxopiperidin-3-yl)-3,5-difluorophenyl)azetidin-3-yl)-2-(3-(trifluoromethoxy)phenyl) acetamide]	0.03 to 0.3	0.1 to 1
O=C1CCC(c2c(F)cc(N3CC(NC(=O)Cc4cc(Cl)c(F)cc4F)C3)cc2F)C(=O)N1 (stereo not drawn) [Compound 4, 2-(5-chloro-2,4-difluorophenyl)-N-(1-(4-(2,6-dioxopiperidin-3-yl)-3,5-difluorophenyl)azetidin-3-yl)acetamide]	< 0.03	0.1 to 1
O=C1CCC(c2c(F)cc(N3CC(NC(=O)Cc4cc(Cl)ccc4F)C3)cc2F)C(=O)N1 (stereo not drawn) [Compound 12, 2-(5-chloro-2-fluorophenyl)-N-(1-(4-(2,6-dioxopiperidin-3-yl)-3,5-difluorophenyl)azetidin-3-yl)acetamide]	0.03 to 0.3	< 0.1
O=C1CCC(c2c(F)cc(N3CC(NC(=O)CC4CCC4)C3)cc2F)C(=O)N1 (stereo not drawn) [Compound 2, 2-cyclobutyl-N-(1-(4-(2,6-dioxopiperidin-3-yl)-3,5-difluorophenyl)azetidin-3-yl)acetamide]	> 0.3	0.1 to 1
O=C1CCC(c2c(F)cc(N3CC(NC(=O)Cc4ccc(Cl)c(F)c4)C3)cc2F)C(=O)N1 (stereo not drawn) [Compound 14, 2-(4-chloro-3-fluorophenyl)-N-(1-(4-(2,6-dioxopiperidin-3-yl)-3,5-difluorophenyl)azetidin-3-yl)acetamide]	> 0.3	0.1 to 1
O=C1CCC(c2c(F)cc(N3CC(NC(=O)Cc4cc(F)cc(F)c4)C3)cc2F)C(=O)N1 (stereo not drawn) [Compound 8, 2-(3,5-difluorophenyl)-N-(1-(4-(2,6-dioxopiperidin-3-yl)-3,5-difluorophenyl)azetidin-3-yl) acetamide]	> 0.3	0.1 to 1
O=C1CCC(c2c(F)cc(N3CC(NC(=O)Cc4cc(F)cc(OC(F)F)c4)C3)cc2F)C(=O)N1 (stereo not drawn) [Compound 26, 2-(3-(difluoromethoxy)-5-fluorophenyl)-N-(1-(4-(2,6-dioxopiperidin-3-yl)-3,5-difluorophenyl)azetidin-3-yl)acetamide]	> 0.3	0.1 to 1
O=C1CCC(c2c(F)cc(N3CC(NC(=O)Cc4c(F)cc(Cl)cc4F)C3)cc2F)C(=O)N1 (stereo not drawn) [Compound 16, 2-(4-chloro-2,6-difluorophenyl)-N-(1-(4-(2,6-dioxopiperidin-3-yl)-3,5-difluorophenyl)azetidin-3-yl) acetamide]	0.03 to 0.3	0.1 to 1
